Experimental data published in patent publication EP3095787A1, “[…] ACTIVE COMPOUNDS AS DAG-LIPASE INHIBITORS” (Universiteit Leiden, priority 2015, dated 2016).

target: T1, FAAH (Mus musculus, UniProt O08914); assay: Gel based competitive ABPP selectivity assay with TAMRA-FP in mouse brain proteome (FAAH band); format: biochemical; conditions: 10 µM inhibitor; TAMRA-FP 500 nM; mouse brain proteome; vehicle set to 100%
T1 construct: For gel based ABPP experiments mouse brain proteome (2.0 mg/mL, 20 µL) was preincubated; from tissue; host or cells: mouse brain proteome
T1 sequence (O08914 1-579): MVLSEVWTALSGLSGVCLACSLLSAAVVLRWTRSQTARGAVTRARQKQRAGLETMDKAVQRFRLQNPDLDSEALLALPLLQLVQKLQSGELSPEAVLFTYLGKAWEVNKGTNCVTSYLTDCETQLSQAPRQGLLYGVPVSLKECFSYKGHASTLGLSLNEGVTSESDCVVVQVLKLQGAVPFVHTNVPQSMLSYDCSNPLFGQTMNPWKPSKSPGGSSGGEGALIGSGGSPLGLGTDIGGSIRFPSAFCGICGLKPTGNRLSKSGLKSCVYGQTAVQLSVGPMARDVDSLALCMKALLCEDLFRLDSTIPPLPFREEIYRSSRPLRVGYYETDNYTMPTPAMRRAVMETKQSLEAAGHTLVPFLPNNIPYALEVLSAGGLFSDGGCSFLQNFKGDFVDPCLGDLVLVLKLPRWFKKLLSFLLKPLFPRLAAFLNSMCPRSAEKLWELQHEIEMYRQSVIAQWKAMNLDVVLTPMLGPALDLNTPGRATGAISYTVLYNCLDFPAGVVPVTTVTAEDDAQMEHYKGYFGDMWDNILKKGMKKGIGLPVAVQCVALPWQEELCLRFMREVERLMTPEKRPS
Protocol: For gel based ABPP experiments mouse brain proteome (2.0 mg/mL, 20 µL) was preincubated for 30 min with vehicle (DMSO) or compound to be tested in 0.5 µL DMSO at rt. And subsequently treated with 500 nM (final concentration) TAMRA-FP (TAMRA-FP was bought at Thermo Fischer) for 15 minutes at rt. The reactions were quenched with 10 µL standard 3 x SDS page sample buffer. The samples were directly loaded and resolved on SDS page gel (10 % acrylamide). The gels were scanned with a ChemiDoc MP sytem (Biorad, Cy 3 settings, 605/50 filter) and analyzed using Image Lab 4.1.
The percentage effect on FAAH was determined by measuring the integrated optical intensity of the band corresponding to FAAH (∼ 63 kD for mouse) using Image lab software. This activity was corrected for the total protein loading per lane as determined by coomassie staining and imaging with a ChemiDoc™ MP sytem (Biorad) followed by determination of the integrated optical intensity per lane by using Image Lab 4.1 software. The intensity of the protein bands from the samples treated with vehicle was set to 100%. […] N/A means less than 50% probe displacement at 10 µM inhibitor concentration.

| SMILES | FAAH ABPP (10 µm) % Eff. |
| --- | --- |
| Cc1ccc(-c2cnc3nc(C(=O)Cc4ccccc4)oc3c2)cc1 [Compound 34, 2-phenyl-1-(6-(p-tolyl)oxazolo[4,5-b]pyridin-2-yl)ethan-1-one] | N/A (N/A means less than 50% probe displacement at 10 µM inhibitor concentration) |
| Cc1ccc(-c2cnc3nc(C(=O)CCc4ccccc4)oc3c2)cc1 [Compound 35, 3-phenyl-1-(6-(p-tolyl)oxazolo[4,5-b]pyridin-2-yl)propan-1-one] | N/A (N/A means less than 50% probe displacement at 10 µM inhibitor concentration) |
| Cc1ccc(-c2cnc3nc(C(=O)CCCc4ccccc4)oc3c2)cc1 [Compound 36, 4-phenyl-1-(6-(p-tolyl)oxazolo[4,5-b]pyridin-2-yl)butan-1-one] | N/A (N/A means less than 50% probe displacement at 10 µM inhibitor concentration) |
| O=C(CCCCCc1ccccc1)c1nc2ncc(-c3ccncc3)cc2o1 [Compound 37, 6-phenyl-1-(6-(pyridin-4-yl)oxazolo[4,5-b]pyridin-2-yl)hexan-1-one] | N/A (N/A means less than 50% probe displacement at 10 µM inhibitor concentration) |
| O=C(CCCCCc1ccccc1)c1nc2ncc(-c3ccccc3Cl)cc2o1 [Compound 38, 1-(6-(2-chlorophenyl)oxazolo[4,5-b]pyridin-2-yl)-6-phenylhexan-1-one] | N/A (N/A means less than 50% probe displacement at 10 µM inhibitor concentration) |
| O=C(CCCCCc1ccccc1)c1nc2ncc(-c3cccc(Cl)c3)cc2o1 [Compound 39, 1-(6-(3-chlorophenyl)oxazolo[4,5-b]pyridin-2-yl)-6-phenylhexan-1-one] | N/A (N/A means less than 50% probe displacement at 10 µM inhibitor concentration) |
| O=C(CCCCCc1ccccc1)c1nc2ncc(-c3ccc(Cl)cc3)cc2o1 [Compound 40, 1-(6-(4-chlorophenyl)oxazolo[4,5-b]pyridin-2-yl)-6-phenylhexan-1-one] | N/A (N/A means less than 50% probe displacement at 10 µM inhibitor concentration) |
| COc1ccc(-c2cnc3nc(C(=O)CCCCCc4ccccc4)oc3c2)cc1 [Compound 41, 1-(6-(4-methoxyphenyl)oxazolo[4,5-b]pyridin-2-yl)-6-phenylhexan-1-one] | N/A (N/A means less than 50% probe displacement at 10 µM inhibitor concentration) |
| Cc1ccc(-c2cnc3nc(C(=O)CCC(F)(F)F)oc3c2)cc1 [Compound 42, 4,4,4-trifluoro-1-(6-(p-tolyl)oxazolo[4,5-b]pyridin-2-yl)butan-1-one] | N/A (N/A means less than 50% probe displacement at 10 µM inhibitor concentration) |
| Cc1ccc(-c2cnc3nc(C(=O)CCCCC(F)(F)F)oc3c2)cc1 [Compound 43, 6,6,6-trifluoro-1-(6-(p-tolyl)oxazolo[4,5-b]pyridin-2-yl)hexan-1-one] | N/A (N/A means less than 50% probe displacement at 10 µM inhibitor concentration) |
| O=C(CCCCCc1ccccc1)c1nc2ncc(-c3cccs3)cc2o1 [Compound 44, 6-phenyl-1-(6-(thiophen-2-yl)oxazolo[4,5-b]pyridin-2-yl)hexan-1-one] | N/A (N/A means less than 50% probe displacement at 10 µM inhibitor concentration) |
| O=C(CCCCCc1ccccc1)c1nc2ncc(-c3nnn[nH]3)cc2o1 [Compound 45, 1-(6-(1H-tetrazol-5-yl)oxazolo[4,5-b]pyridin-2-yl)-6-phenylhexan-1-one] | N/A (N/A means less than 50% probe displacement at 10 µM inhibitor concentration) |
| Cn1cccc1-c1cnc2nc(C(=O)CCCCCc3ccccc3)oc2c1 [Compound 46, 1-(6-(1-methyl-1H-pyrrol-2-yl)oxazolo[4,5-b]pyridin-2-yl)-6-phenylhexan-1-one] | N/A (N/A means less than 50% probe displacement at 10 µM inhibitor concentration) |
| Cc1ccccc1-c1cnc2nc(C(=O)CCCCCc3ccc(F)cc3)oc2c1 [Compound 47, 6-(4-fluorophenyl)-1-(6-(o-tolyl)oxazolo[4,5-b]pyridin-2-yl)hexan-1-one] | N/A (N/A means less than 50% probe displacement at 10 µM inhibitor concentration) |
| O=C(CCCCCc1ccncc1)c1nc2ncc(-c3ccccc3F)cc2o1 [Compound 48, 1-(6-(2-fluorophenyl)oxazolo[4,5-b]pyridin-2-yl)-6-(pyridin-4-yl)hexan-1-one] | N/A (N/A means less than 50% probe displacement at 10 µM inhibitor concentration) |
| Cc1ccccc1-c1cnc2nc(C(=O)CCCCOc3ccc(F)cc3)oc2c1 [Compound 49, 5-(4-fluorophenoxy)-1-(6-(o-tolyl)oxazolo[4,5-b]pyridin-2-yl)pentan-1-one] | N/A (N/A means less than 50% probe displacement at 10 µM inhibitor concentration) |
| Cc1cccc(C)c1-c1cnc2nc(C(=O)CCCCCc3ccccc3)oc2c1 [Compound 50, 1-(6-(2,6-dimethylphenyl)oxazolo[4,5-b]pyridin-2-yl)-6-phenylhexan-1-one] | N/A (N/A means less than 50% probe displacement at 10 µM inhibitor concentration) |
| N#Cc1ccc(-c2cnc3nc(C(=O)CCCCCc4ccccc4)oc3c2)cc1 [Compound 51, 4-(2-(6-phenylhexanoyl)oxazolo[4,5-b]pyridin-6-yl)benzonitrile] | N/A (N/A means less than 50% probe displacement at 10 µM inhibitor concentration) |
| O=C(CCCCCc1ccccc1)c1nc2ncc(-c3cccc(F)c3)cc2o1 [Compound 52, 1-(6-(3-fluorophenyl)oxazolo[4,5-b]pyridin-2-yl)-6-phenylhexan-1-one] | N/A (N/A means less than 50% probe displacement at 10 µM inhibitor concentration) |
| O=C(CCCCCc1ccccc1)c1nc2ncc(-c3ccccn3)cc2o1 [Compound 53, 6-phenyl-1-(6-(pyridin-2-yl)oxazolo[4,5-b]pyridin-2-yl)hexan-1-one] | N/A (N/A means less than 50% probe displacement at 10 µM inhibitor concentration) |
| Cc1ccccc1-c1cnc2nc(C(=O)CCCCCc3ccccc3)oc2c1 [Compound 54, 6-phenyl-1-(6-(o-tolyl)oxazolo[4,5-b]pyridin-2-yl)hexan-1-one] | N/A (N/A means less than 50% probe displacement at 10 µM inhibitor concentration) |
| Cc1cccc(-c2cnc3nc(C(=O)CCCCCc4ccccc4)oc3c2)c1 [Compound 55, 6-phenyl-1-(6-(m-tolyl)oxazolo[4,5-b]pyridin-2-yl)hexan-1-one] | N/A (N/A means less than 50% probe displacement at 10 µM inhibitor concentration) |
| O=C(CCCCCc1ccccc1)c1nc2ncc(-c3ccccc3F)cc2o1 [Compound 57, 1-(6-(2-fluorophenyl)oxazolo[4,5-b]pyridin-2-yl)-6-phenylhexan-1-one] | N/A (N/A means less than 50% probe displacement at 10 µM inhibitor concentration) |
| O=C(CCCCCc1ccccc1)c1nc2ncc(-c3ccc(F)cc3)cc2o1 [Compound 58, 1-(6-(4-fluorophenyl)oxazolo[4,5-b]pyridin-2-yl)-6-phenylhexan-1-one] | N/A (N/A means less than 50% probe displacement at 10 µM inhibitor concentration) |
